Data reported in ChEMBL document CHEMBL3988442, “University of Dundee, Small-Polar-MMV Screening Library” (2021).
Values joined by “and” are separate entries in the source; they are usually repeats but may differ in a detail not shown here. Identical values can stand only once.

How the values were obtained:
[1] = molecular target: Tryptophan--tRNA ligase (Mycobacterium tuberculosis (strain ATCC 25618 / H37Rv), UniProt P9WFT3); test: Biochemical assay for Mt-TrpRS; format: functional
[2] = tested on: Schistosoma mansoni; test: High throughput screening of compounds against Schistosoma mansoni motility; format: functional; set-up: dose or concentration left out as unconfirmed
[3] = molecular target: T1, Histidine--tRNA ligase (Leishmania infantum, UniProt A4I591); test: Leishmania infantum Histidine tRNA synthetase (LdHisRS); format: functional
T1 sequence (A4I591 whole entry): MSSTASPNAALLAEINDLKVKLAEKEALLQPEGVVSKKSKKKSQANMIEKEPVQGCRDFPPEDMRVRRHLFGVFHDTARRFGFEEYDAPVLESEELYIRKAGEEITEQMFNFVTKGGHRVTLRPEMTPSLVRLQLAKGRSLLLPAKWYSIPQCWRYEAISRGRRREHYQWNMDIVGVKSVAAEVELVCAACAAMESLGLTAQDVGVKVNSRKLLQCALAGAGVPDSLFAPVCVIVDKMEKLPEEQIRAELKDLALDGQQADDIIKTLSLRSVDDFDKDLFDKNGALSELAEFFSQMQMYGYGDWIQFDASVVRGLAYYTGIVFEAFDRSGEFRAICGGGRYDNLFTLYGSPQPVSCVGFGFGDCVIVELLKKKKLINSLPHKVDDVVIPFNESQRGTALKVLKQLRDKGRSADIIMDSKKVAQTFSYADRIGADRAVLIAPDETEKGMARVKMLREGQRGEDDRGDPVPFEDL

[4] = tested on: Plasmodium falciparum; test: Calibr Malaria Delayed Death Assay SOP; format: functional, organism-based
[5] = In vitro enzyme assay to detect hydrolysis of chlorophenol red-beta-D-[…] directly proportional to the number of Toxoplasma stably expressing beta-galactosidase; format: functional, organism-based, Toxoplasma gondii; details: Toxoplasma gondii
[6] = microbe, parasite or virus in culture; details: Mycobacterium tuberculosis, 72 h, read-out: pIC50 (converted)
[7] = microbe, parasite or virus in culture; details: Mycobacterium tuberculosis, 96 h, read-out: pIC50 (converted)
[8] = molecular target: ClpP1P2 (Mycobacterium tuberculosis (strain ATCC 25618 / H37Rv), UniProt P9WPC3+P9WPC5); test: in vitro assay to detect presence of AMC directly proportional to the activity of ClpP1P2. GHDDI collaboration.; format: functional
Chain of ClpP1P2 (P9WPC5 whole entry): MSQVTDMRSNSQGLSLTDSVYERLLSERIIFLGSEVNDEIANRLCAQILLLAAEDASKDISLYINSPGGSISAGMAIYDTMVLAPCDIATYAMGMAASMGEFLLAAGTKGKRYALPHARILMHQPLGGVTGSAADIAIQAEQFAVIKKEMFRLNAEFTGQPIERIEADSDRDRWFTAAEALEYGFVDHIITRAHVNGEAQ
Chain of ClpP1P2 (P9WPC3 whole entry): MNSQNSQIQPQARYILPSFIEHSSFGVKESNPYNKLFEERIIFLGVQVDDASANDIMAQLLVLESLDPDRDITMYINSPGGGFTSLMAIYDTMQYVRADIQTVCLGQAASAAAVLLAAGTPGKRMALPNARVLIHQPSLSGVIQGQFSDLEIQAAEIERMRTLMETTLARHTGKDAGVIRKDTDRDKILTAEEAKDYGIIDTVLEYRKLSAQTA

Chain of Tryptophan--tRNA ligase (P9WFT3 whole entry): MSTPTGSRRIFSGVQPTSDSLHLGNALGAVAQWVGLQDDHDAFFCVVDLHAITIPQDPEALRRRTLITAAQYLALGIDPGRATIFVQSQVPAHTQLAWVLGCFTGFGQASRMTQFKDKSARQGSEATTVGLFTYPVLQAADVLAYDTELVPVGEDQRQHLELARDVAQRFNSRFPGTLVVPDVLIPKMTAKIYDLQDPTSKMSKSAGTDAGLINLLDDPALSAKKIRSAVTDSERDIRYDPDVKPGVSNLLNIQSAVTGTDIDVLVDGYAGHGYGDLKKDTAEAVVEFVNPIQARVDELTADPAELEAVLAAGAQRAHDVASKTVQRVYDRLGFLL

Structure (SMILES) | IC50 [1] [µM] | Percent Effect [2] [%] | also measured
NC(=O)C1CCN(C(=O)CCn2ccc3cc(Br)ccc32)CC1 | > 195 | -11.99 | –
O=C(CCc1ccsc1)NCC1CCN(c2ccccc2)C1 (stereo not given) | > 195 | 6.73 | –
Cn1nc2c(cc1=O)CN(c1nc3ccccc3s1)CC2 | – | – | IC50 [3]: 72.4 µM and 80.9 µM
CCc1cnc(CN(C(C)=O)C2CCN(CCS(C)(=O)=O)C2)o1 (stereo not given) | > 195 | -22.31 | –
NC(=O)CN1CCN(CC2CC2)c2ccccc21 | – | – | IC50 [3]: > 100 µM
Cc1nc(CN2CCCC2c2ccsc2)nc2ccccc12 (stereo not given) | – | – | IC50 [3]: 56 µM and 44.1 µM
c1cncc(-c2ccc3c(c2)C2(CC3)CCN(c3nncs3)CC2)c1 | – | – | IC50 [3]: 32.5 µM and 45.4 µM
Cc1csc(CN(C)C(C)C(=O)N2CCc3ccccc3C2)n1 (stereo not given) | – | – | IC50 [3]: > 100 µM
CN1CCN(c2cccc(NC(=O)NCc3csc(N(C)C)n3)c2)C1=O | – | – | IC50 [3]: 38.9 µM and 48.5 µM
CO[C@H]1CCN(Cc2ccoc2)C[C@@H]1Cc1ccccc1.O=C(O)C(F)(F)F | > 195 | – | pIC50 [4]: 5.889; IC50 ([4]; Plasmodium falciparum): 1.2 µM
O=C(NCC1CC1)c1cc2c(s1)CCN2c1ncccn1 | – | – | IC50 [3]: 63 µM and 54 µM
Nc1cccnc1N1CCCCCC1 | – | – | IC50 [3]: 16.4 µM and 17.4 µM
CC(O)CN1CCN(C(=O)c2ccc(Cn3cccn3)cc2)CC1 (stereo not given) | – | – | IC50 [3]: > 100 µM
CCCn1cc(NC(=O)c2cccc3cccnc23)ccc1=O | – | – | IC50 [3]: 40.1 µM and 37.9 µM
CCc1nnc2n1CCN(C(=O)c1ccc3[nH]cnc3c1)C2 | > 195 | 19.35 | –
COCCCN(C)C(=O)Cn1cccc(OC)c1=O | – | – | IC50 [3]: 66 µM and 57.5 µM
CN(Cc1cnn(C)c1)C(=O)NC1CCC(O)CC1 (stereo not given) | > 195 | 15.72 | –
O=C(c1cnccn1)N1C[C@@H]2[C@@H](C1)OCC(=O)N2CC1CCCC1 | – | – | IC50 [3]: > 100 µM
Cn1cccc(NC(=O)N2CCC(CSc3ccccc3)C2)c1=O (stereo not given) | – | – | IC50 [3]: 15.1 µM and 14.9 µM
COc1ccccc1N1CCC(CNCc2cccc(OC)c2OC)C1 (stereo not given) | – | – | IC50 [3]: > 100 µM
COc1cccc(CNCCc2cc(F)cc3c2OCOC3)c1 | > 195 | 75.77 | –
O=C(NCCO)Nc1cccc(Cl)c1SC(F)F | > 195 | -20.44 | –
CN(CCCC#N)C1CCCN(Cc2noc(C3CC3)n2)C1 (stereo not given) | > 195 | -67.8 | –
Cl.NC(=O)COc1ccc(CNCc2ccc(F)c(F)c2)cc1 | > 195 | 13.17 | –

Structure (SMILES) | IC50 [1] [µM] | Percent Effect [2] [%] | also measured
O=C1CC2(CCN(CC3CCOC3)CC2)CN1Cc1cc(F)cc(F)c1 (stereo not given) | > 195 | -23.28 | –
Cc1cnn(CC(C)NCc2nc(-c3ccco3)no2)c1 (stereo not given) | > 195 | -25.07 | –
OCCNc1nccc(-c2c[nH]nc2-c2ccco2)n1 | > 195 | – | IC50 [5]: > 50.1 µM
O=C(c1ccc[nH]1)N1CCN(CC2CCOc3ccccc3C2)CC1 (stereo not given) | > 195 | -5.036 | –
Cc1ccc(NC(=O)Cn2cc(I)cn2)cc1 | > 195 | -1.868 | –
O=C(CCc1cc(O)no1)N1CCCC(COc2ccc(F)cc2)C1 (stereo not given) | > 195 | 28.51 | –
Cc1ccc(CC(=O)N2CCOC(c3nc(C)n[nH]3)C2)cn1 (stereo not given) | > 195 | 13.87 | –
O=C1CN(Cc2nnc(-c3ccc(Br)cc3)o2)CCN1 | > 195 | -48.54 | –
O=C(NCCCO)Nc1cccc(Cl)c1F | > 195 | 24.34 | –
Cc1cc(NC(=O)NCCc2cccs2)n(C)n1 | > 195 | 9.063 | –
COCCNc1nnc(-c2ccc(C)nc2)s1 | > 195 | – | IC50 [5]: > 50.1 µM
CCO[C@H]1CC[C@H]2[C@@H]1OCCN2C(=O)COc1ccccc1 | > 195 | – | IC50 [6]: > 50.1 µM; IC50 [7]: > 50.1 µM
COCCC(=O)N1CCC(C(=O)c2cc(C)cnc2N)CC1 | > 195 | – | IC50 [6]: > 50.1 µM; IC50 [7]: > 50.1 µM
Cc1ccc(CNC(=O)Nc2cc(C(F)(F)F)c[nH]c2=O)cn1 | > 195 | -4.568 | –
CC(Cn1cccn1)NC(=O)Nc1ccc(N(C)C)nc1 (stereo not given) | > 195 | 0.4135 | –
NC(=O)CN1CCC2(CC1)CC(=O)c1ccc3ccccc3c1O2 | > 195 | – | IC50 [8]: > 100 µM
O=C1CN(Cc2nnc(-c3ccccc3Br)o2)CCN1 | > 195 | 12.25 | –
CC(=O)N1CCN(CC2CCOc3ccccc3C2)CC1 (stereo not given) | > 195 | -45.54 | –
Cn1ccnc1-c1cccc(NC(=O)NCCCO)c1 | > 195 | -1.514 | –
CN(C)C(=O)c1cccc(CN2CCN(CCO)CC2)c1 | > 195 | – | IC50 [8]: > 100 µM
COc1ccc2c(c1)C(=O)CC1(CCN(Cc3ccc(F)cc3)CC1)O2 | > 195 | – | IC50 [8]: > 100 µM
Cn1ccc(-c2cc(C(=O)N3CCC(O)CC3)c3ccccn23)n1 | > 195 | – | IC50 [6]: > 50.1 µM; IC50 [8]: > 100 µM; IC50 [7]: > 50.1 µM
CO[C@H]1CN(S(=O)(=O)c2ccc(F)cc2)C[C@@]12CCCO2 | > 195 | – | IC50 [8]: > 100 µM
